The text below walks through data of ChEMBL document CHEMBL1130117, “Structure-activity relationships for the antileishmanial and antitrypanosomal activities of 1'-substituted 9-anilinoacridines” (J Med Chem, 1997).

One series relates to Trypanosoma brucei. As to the kind of experiment: Concentration required to inhibit the growth of extracellular Trypanosoma brucei trypomastigotes to 50% of untreated controls. In kind it is functional. The following applies: read-out: ED50 (the source's name).
A further series has as its system Leishmania donovani. Kind of series: Concentration required to reduce the number of macrophages infected with Leishmania donovani amastigotes to 50% of untreated controls. In kind it is functional. The settings on record: read-out: ED50 (the source's name).
A short description of series [1]: Lipophilicity index (substitution method). The format is physicochemical. The settings on record: octanol/water.
The test system of a further series is Trypanosoma cruzi. As to the kind of experiment: Concentration required to reduce the number of macrophages infected with Trypanosoma cruzi amastigotes to 50% of untreated controls. The format is functional. The settings on record: read-out: ED50 (the source's name).
Another series concerns Leishmania major. As to the kind of experiment: Concentration required to reduce incorporation of [3H]TdR in drug-treated cultures of intracellular Leishmania major to 50% of controls. The format is functional, organism-based.
The test system of another series is Jurkat. Kind of series: Concentration required to reduce the growth of human Jurkat cells to 50% of control cultures. The format is functional, cell-based.
Series [2] is described as follows: relative lipophilicity determined where possible by computation by the fragment constant method. In kind it is physicochemical. The following applies: octanol/water.

On to `CCN(CC)c1ccc(Nc2c3ccccc3nc3ccccc23)cc1`, for which the EC50 is above 0.3 µM with Trypanosoma brucei, 0.76 µM in the series with Leishmania donovani and above 3 µM in the series with Trypanosoma cruzi. In addition, the Index in series [1] was determined as 1.18. In addition, the IC50 in the series with Leishmania major worked out at 0.4 µM; in the series on Jurkat, 1 µM.
In series [1], `c1ccc2c(Nc3ccc(NC4CCCCC4)cc3)c3ccccc3nc2c1` gave an Index of 2. Further, the results for the half-maximal inhibitory concentration (IC50) in the series with Leishmania major and with Jurkat were 0.55 µM and above 15 µM, respectively.
Regarding `CCN(C)c1ccc(Nc2c3ccccc3nc3ccccc23)cc1`, the EC50 in the series with Trypanosoma brucei was determined as 0.88 µM; in the series with Leishmania donovani, 4.4 µM; in the series with Trypanosoma cruzi it was 3.3 µM. In series [1], this molecule had an Index of 0.68. The IC50 in the series on Leishmania major was 1 µM; in the series with Jurkat, 4 µM.
For the molecule `CCCCCCOc1ccc(Nc2c3ccccc3nc3ccccc23)cc1`, in series [1], the Index came out at 2.87. Besides, the concentration for half-maximal inhibition (IC50) in the series on Leishmania major is 1 µM; with Jurkat it was 5 µM.
In series [1], `CN(C)c1ccc2c(Nc3ccccc3)c3ccc(N(C)C)cc3nc2c1` registered an Index of 0.36. For the same molecule, half-maximal inhibition in the series on Leishmania major (IC50) was put at 0.03 µM.
`NCCCCCCNS(=O)(=O)c1ccc(N=c2c3ccccc3[nH]c3ccccc23)cc1`: the half-maximal inhibitory concentration (IC50) with Leishmania major is above 3 µM; with Jurkat, above 20 µM.
With `c1ccc2c(Nc3ccc(CN4CCCC4)cc3)c3ccccc3nc2c1`, the half-maximal inhibitory concentration (IC50) is 0.2 µM in the series on Leishmania major and 2 µM with Jurkat.
In the case of `CCCCCCN(C)c1ccc(Nc2c3ccccc3nc3ccccc23)cc1OC`, the EC50 is 1.8 µM in the series with Trypanosoma brucei, 1.9 µM in the series on Leishmania donovani and above 0.3 µM in the series with Trypanosoma cruzi. The molecule also yielded an Index in series [1] of 3.02. The IC50 was 0.6 µM with Leishmania major and 6.5 µM in the series on Jurkat.
In turn, `CCN(C)c1ccc(Nc2c3ccccc3nc3ccccc23)cc1OC` yielded an Index in series [1] of 0.66. Further, the 50% inhibitory concentration (IC50) was above 3 µM in the series with Leishmania major and 16.5 µM with Jurkat.
Consider `CCCCCCNc1ccc(Nc2c3ccc(Cl)cc3nc3ccc(OC)cc23)cc1OC`, for which the EC50 was 0.6 µM in the series on Trypanosoma brucei, 3.2 µM in the series on Leishmania donovani and 9.3 µM in the series on Trypanosoma cruzi. The Index in series [1] was found to be 3.71. Besides, the IC50 in the series with Leishmania major is 0.5 µM; in the series on Jurkat it was above 20 µM.
`CCN(CC)CCCNc1ccc(Nc2c3ccccc3nc3ccccc23)cc1`: the Index in series [1] came to 3.29. Further, the IC50 with Leishmania major was found to be 0.2 µM; with Jurkat, 1.3 µM.
In the same order, the values of `CNc1ccc(Nc2c3ccccc3nc3ccccc23)cc1OC` are -0.49, 3.6 µM and 11 µM.
As to `CN(C)c1ccc(Nc2c3ccccc3nc3ccccc23)cc1`, the EC50 in the series with Trypanosoma brucei was 1.3 µM; in the series with Leishmania donovani it was 3.6 µM; with Trypanosoma cruzi, above 3 µM. In series [1], the Index is 0.18. Moreover, the IC50 with Leishmania major was 0.9 µM; in the series on Jurkat it was 1 µM.
For the molecule `CCCCCCN(C)c1ccc(Nc2c3ccc(Cl)cc3nc3ccc(OC)cc23)cc1`, the EC50 in the series with Trypanosoma brucei is 4.3 µM; in the series on Leishmania donovani, above 3 µM; in the series on Trypanosoma cruzi, above 3 µM. The molecule further registered an Index in series [1] of 3.73. In addition, the IC50 in the series with Leishmania major is 1.8 µM; with Jurkat, above 20 µM.
In series [1], `COc1cc(NS(C)(=O)=O)ccc1Nc1c2ccc(N)cc2nc2cc(N)ccc12` gave an Index of -3.66. Moreover, the 50% inhibitory concentration (IC50) in the series with Leishmania major was above 3 µM.
With `CCN(CC)CCNc1ccc(Nc2c3ccccc3nc3ccccc23)cc1OC`, the Index in series [1] is given as 3.27. The IC50 in the series on Leishmania major was 1.6 µM; with Jurkat it was 1.5 µM.
In the same order, the values of `c1ccc(Nc2c3ccccc3nc3ccccc23)cc1` are 0, 2.7 µM and 2.7 µM.
On to `CN(C)Cc1ccc(Nc2c3ccccc3nc3ccccc23)cc1`, for which the Index in series [1] is -0.15. The same molecule returned an IC50 in the series with Leishmania major of 1 µM.
For `Nc1ccc2c(Nc3ccc(CN4CCCC4)cc3)c3ccc(N)cc3nc2c1`, the IC50 with Leishmania major was above 3 µM; in the series on Jurkat, above 20 µM.
In turn, `Nc1ccc(Nc2c3ccccc3nc3ccccc23)cn1` had an Index in series [1] of -2.74. Besides, the concentration for half-maximal inhibition (IC50) amounted to 3.9 µM in the series with Leishmania major and 3.6 µM in the series on Jurkat.
For the molecule `CCCCCN(CCCCC)c1ccc(Nc2c3ccccc3nc3ccccc23)cc1`, the EC50 in the series on Trypanosoma brucei is 0.2 µM; with Leishmania donovani, above 90 µM; with Trypanosoma cruzi, above 0.3 µM. Moreover, the Index in series [1] was 4.88. The 50% inhibitory concentration (IC50) amounted to 0.16 µM in the series on Leishmania major and 2.3 µM with Jurkat.
`CNc1ccc(Nc2c3ccccc3nc3ccccc23)cc1` came in with an Index in series [1] of -0.47. Further, the half-maximal inhibitory concentration (IC50) with Leishmania major was 1.5 µM.
In the case of `CCCCCCNc1ccc(Nc2c3ccc(N(C)C)cc3nc3cc(N(C)C)ccc23)cc1`, the EC50 with Trypanosoma brucei was 0.2 µM; with Leishmania donovani, 0.25 µM; in the series with Trypanosoma cruzi it was above 3 µM. The Index in series [1] was found to be 2.74. In addition, the IC50 turned out to be 0.16 µM in the series on Leishmania major and 1.75 µM in the series with Jurkat.
With `CCCCN(CCCC)c1ccc(Nc2c3ccccc3nc3ccccc23)cc1`, the results for the EC50 in the series with Trypanosoma brucei, with Leishmania donovani and in the series with Trypanosoma cruzi were 1.46 µM, above 10 µM and above 10 µM, respectively. The molecule also displayed an Index in series [1] of 3.56. The IC50 was 0.35 µM with Leishmania major and 2 µM in the series with Jurkat.
In the case of `NCCNCCc1ccc(Nc2c3ccccc3nc3ccccc23)cc1`, the results for the half-maximal inhibitory concentration (IC50) with Leishmania major and in the series with Jurkat were 0.7 µM and 4 µM, respectively.
`c1ccc2c(Nc3ccc(NC4CCCC4)cc3)c3ccccc3nc2c1` showed an Index in series [1] of 1.8. The IC50 is 0.45 µM in the series with Leishmania major and 5 µM with Jurkat.
`CCCCCCCc1ccc(Nc2c3ccccc3nc3ccccc23)cc1` yielded an Index in series [1] of 3.99. Besides, the IC50 was determined as 0.8 µM in the series with Leishmania major and 13 µM in the series on Jurkat.
Taken in the same sequence, the figures for `COc1cc(NS(C)(=O)=O)ccc1Nc1c2ccccc2nc2ccccc12` [AMSACRINE] were -1.2, 1.5 µM and 0.2 µM.
On to `CCCCCCN(C)c1ccc(Nc2c3ccc(N(C)C)cc3nc3cc(N(C)C)ccc23)cc1`, for which the EC50 with Trypanosoma brucei is above 0.3 µM; in the series on Leishmania donovani, 0.03 µM; with Trypanosoma cruzi it was 0.12 µM. In series [1], this molecule had an Index of 3.4. In addition, the IC50 in the series with Leishmania major came out at 0.07 µM; with Jurkat, 1.75 µM.
`CCCN(CCC)c1ccc(Nc2c3ccccc3nc3ccccc23)cc1`: the EC50 in the series on Trypanosoma brucei was 0.37 µM; in the series with Leishmania donovani, above 10 µM; with Trypanosoma cruzi it was 2.5 µM. Further, the Index in series [1] is on record as 2.24. Moreover, the half-inhibitory concentration (IC50) was 0.2 µM in the series with Leishmania major and 1.5 µM with Jurkat.
Take `Nc1ccc2c(=Nc3ccc(S(N)(=O)=O)cc3)c3ccc(N)cc3[nH]c2c1`: the Index in series [1] is listed as -4.28. Also, in the series with Leishmania major, the half-inhibitory concentration (IC50) is above 3 µM.
On to `CCN(CC)CCCc1ccc(Nc2c3ccccc3nc3ccccc23)cc1`, for which the Index in series [1] was 4.22. Moreover, the values for the IC50 in the series on Leishmania major and with Jurkat were 0.3 µM and below 1 µM, respectively.
With `CN(C)Cc1ccc(Nc2c3ccc(Cl)cc3nc3cc(Cl)ccc23)cc1`, the Index in series [1] amounted to 1.27. The same molecule had a 50% inhibitory concentration (IC50) with Leishmania major of 2 µM.
The molecule `Nc1ccc(Nc2c3ccccc3nc3ccccc23)cc1` had an Index in series [1] of -1.23. The same molecule gave a 50% inhibitory concentration (IC50) in the series with Leishmania major of 2.1 µM.
Regarding `CNc1ccc(Nc2c3ccccc3nc3ccccc23)cc1OC(C)C`, the figures for the IC50 with Leishmania major and with Jurkat were 1.3 µM and 8 µM, respectively. In addition, the Liphophilicity in series [2] was determined as 0.38 sigma pi.
Consider `CCCCCCNc1ccc(Nc2c3ccccc3nc3ccccc23)cc1OC`, for which the EC50 in the series with Trypanosoma brucei stood at 0.65 µM; in the series with Leishmania donovani, 1.2 µM; in the series on Trypanosoma cruzi it was 1.8 µM. The molecule also registered an Index in series [1] of 2.36. Besides, the concentration for half-maximal inhibition (IC50) stood at 0.4 µM in the series on Leishmania major and 3.5 µM in the series with Jurkat.
Turning to `NS(=O)(=O)c1ccc(Nc2c3ccccc3nc3ccccc23)cc1`, the Index in series [1] is -1.82. Further, the figures for the IC50 in the series with Leishmania major and in the series on Jurkat were above 3 µM and 5 µM, respectively.
Consider `CCCCCCNc1ccc(Nc2c3ccccc3nc3ccccc23)cc1`, for which the EC50 is 3.9 µM in the series on Trypanosoma brucei, 12.3 µM in the series on Leishmania donovani and 2.2 µM in the series with Trypanosoma cruzi. In series [1], this molecule returned an Index of 2.38. Further, the half-maximal inhibitory concentration (IC50) in the series with Leishmania major came out at 0.55 µM; in the series on Jurkat it was 17 µM.
In series [1], `COc1cc(NS(C)(=O)=O)ccc1Nc1c2ccc(N(C)C)cc2nc2cc(N(C)C)ccc12` showed an Index of -0.84. The IC50 with Leishmania major is above 3 µM; with Jurkat it was 3 µM.
Consider `CCCCCCN(CCCCCC)c1ccc(Nc2c3ccccc3nc3ccccc23)cc1`, for which the EC50 was above 0.3 µM in the series on Trypanosoma brucei, 1.35 µM in the series on Leishmania donovani and above 3 µM with Trypanosoma cruzi. Moreover, the Index in series [1] is recorded as 6.2. The IC50 in the series with Leishmania major was found to be 0.24 µM; in the series with Jurkat it was 6.5 µM.
With `CCCCCCN(C)c1ccc(Nc2c3ccccc3nc3ccccc23)cc1`, the EC50 was 0.33 µM with Trypanosoma brucei, 1.2 µM in the series with Leishmania donovani and above 1 µM with Trypanosoma cruzi. In addition, the Index in series [1] stood at 3.04. In addition, the IC50 with Leishmania major amounted to 0.3 µM; with Jurkat, 3 µM.
Take `CCCCCCNc1ccc(Nc2c3ccc(Cl)cc3nc3ccc(OC)cc23)cc1`: the EC50 was above 0.3 µM in the series on Trypanosoma brucei, 4 µM in the series on Leishmania donovani and above 10 µM with Trypanosoma cruzi. In addition, the Index in series [1] is reported as 3.07. Besides, the IC50 in the series with Leishmania major worked out at 0.2 µM; in the series with Jurkat it was 4 µM.
The molecule `CN(C)Cc1ccc(Nc2c3ccc(N)cc3nc3cc(N)ccc23)cc1` displayed an Index in series [1] of -2.61. For the same molecule, the half-inhibitory concentration (IC50) was determined as 5 µM in the series with Leishmania major and 12 µM in the series on Jurkat.
Consider `CCCCCNCc1ccc(Nc2c3ccccc3nc3ccccc23)cc1`, for which the 50% inhibitory concentration (IC50) amounted to 2 µM with Leishmania major and 1.53 µM in the series with Jurkat.
